The text below walks through data of patent US20050203063A1, “Proteasome pathway inhibitors and related methods” (priority 2003, published 2005).

Entries after “also recorded” stand apart in the source; their conditions may differ.

Assay [1] concerns 26S proteasomes. Briefly: Deubiquitination of UbSic1 by epoxomicin-treated purified 26S proteasomes. The assay is classed as biochemical, S. cerevisiae. As to conditions: 100 μM test compound, 100 μM epoxomicin. The method, then:
(§1) FIG. 2. […] (A) Degradation of UbSic1. Purified 26S proteasomes were preincubated in the presence or absence of test compounds. UbSic1 was then added, and degradation assayed as described (6). Py mock refers to the pyridine solvent in which C23 was dissolved which was marginally inhibitory, unlike the 50% DMSO vehicle used for other test compounds. (B) Deubiquitination of UbSic1. […] UbSic1 was then added, and deubiquitination was assayed as described (6). (C) Titration curve with varying concentrations of C92 to determine half-maximal inhibition of deubiquitination. (D) C92 inhibits binding of UbSic1 to 26S proteasomes. Purified 26S proteasomes immobilized on anti-Flag beads were incubated with UbSic1 in the presence or absence of C92 as described (6). Following binding, beads were washed and analyzed by immunoblotting with anti-Sic1 polyclonal serum. (E) Binding of UbSic1 to the polyUb binding proteins Rpn10 and Rad23 is inhibited by C92. Recombinant Gst-Rpn10 and Gst-Rad23 (1 μg each) were immobilized on glutathione sepharose beads and then incubated with UbSic1 in the presence or absence of C92. Following binding, beads were washed and analyzed by immunoblotting. (F) C92 interacts with multiUb chains. Equivalent amounts (5 μg) of purified Gst, Gst-fusion protein or multiUb chains were incubated with C92 or C1 before being loaded on a 5% native polyacryamide gel. Electrophoresis was performed as described (33). (G) C92 and C59 interact specifically with K48-linked Ub on native gels. Ub (16 μM), K48-linked diUb (8 μM), or tetraUb chains (8 μM) were preincubated with a two fold-molar excess (monoUb and diUb), or equivalent amounts (tetraUb) of test compounds before being resolved on native gels as in (G). Tetra K29Ub, K48Ub, and K63Ub refer to tetraubiquitin chains wherein the ubiquitins are linked via K29, K48, or K63.
FIG. 5. […] Assays were performed and evaluated as summarized in the legend to FIG. 2B. The metal chelating reagent phenanthroline is designated as “P”, and “Py” refers to the pyridine solvent that is used as the solvent for C23. (B) Titration curve for C59. (C) Inhibition of binding of ubiquitin conjugates to Gst-Rpn10 by C92 and C59, but not other compounds. The experiment was performed as described for FIG. 2E.
26S proteasomes were purified from S. cerevisiae cells expressing a Flag-tagged proteasomal subunit (PRE1) essentially as described (28).
Reactions were processed as above.

Assay [2] has as its system 26S proteasomes. As to the kind of experiment: Degradation of UbSic1 by purified 26S proteasomes. The assay is classed as biochemical, S. cerevisiae. As to conditions: concentrations as low as 10 μM. The method, then:
as §1
Sic1 is a Cdk inhibitor in Saccharomyces cerevisiae that must be degraded for cells to enter S-phase (9-11). […]

Assay [3] deals with cyclin-luciferase (cyc-luc) turnover, activated APC/C. As to the kind of experiment: cyc-luc turnover in mitotic Xenopus extracts (pre-treated with non-degradable cyclin B). The assay is classed as biochemical. As to conditions: 200 μM compound; extracts in mitosis before addition of compound. The method, then: (§2) FIG. 1. Functional classification of inhibitors. Compounds that scored in the initial screen were reacquired as dry powders and retested in Xenopus extracts in 4 assays at 200 μM concentration (32) as described (6). […] (A) Compounds and cyclin-luciferase were added to interphase extracts, which were then induced to enter mitosis by addition of non-degradable cyclin B. Percent inhibition of cyc-luc turnover by each compound is coded according to the grayscale shown at the bottom of the figure; specific values are available in Table 1. (B) Extracts were pre-treated with non-degradable cyclin B to allow entry into mitosis prior to addition of test compound and reporter protein. (C) Interphase extracts were treated by addition of recombinant Cdh1 to activate cyc-luc turnover. (D) Interphase extracts were treated with recombinant axin to induce turnover of β-catenin-luciferase.
(§3) The “Cmpd” column corresponds to the numbers used in FIG. 1; “Class” refers to the class of inhibitor described in FIG. 1 and the text. Columns A-D show percent inhibition in the four assays described in FIG. 1. (A) Interphase extracts (B) Mitotic extracts (C) Interphase extracts stimulated with Cdh1 (D) Degradation of a β-catenin reporter protein in interphase extracts stimulated with recombinant axin. […] “ID#” refers to the identification number of the inhibitor obtained from the NCI (prefaced by NSC) or Chembridge (prefaced by C).
(§4) Dry compounds were redissolved at 20 mM concentration in DMSO, or a 50:50 water:DMSO mixture in certain cases. These compounds were then diluted ten-fold in XB and mixed thoroughly. For the assay in FIG. 1A, chilled interphase extract was mixed with cyclin BΔ90 (10 μg/ml) and cyc-luc (0.1 μg/ml) in bulk and then 27 μl of extract was pipetted to each well of a chilled 384-well plate. Three microliters of each compound (diluted in XB) was then added to each well, and then compounds mixed thoroughly. Plates were warmed to room temperature. After 70 minutes, 5 μl aliquots were transferred to another plate, and then 30 μl of luciferin reagent was added to each well and luminescence measured. Percent inhibition was calculated as described above. The reported values represent the average of three independent measurments. For the assay in FIG. 1B, interphase extracts were treated with 10 μg/cyclin B 90 for 50 minutes at room temperature and then chilled on ice. Cyc-luc was then added, and then 27 μl of extract was pipetted to each well of a chilled 384-well plate. Three microliters of each compound (diluted in XB) was then added to each well, and then compounds mixed thoroughly. Plates were warmed to room temperature. After 60 minutes, 5 μl aliquots were transferred to another plate, and then 30 μl of luciferin reagent was added to each well and luminescence measured. For the assay in FIG. 1C, recombinant Cdh1 (0.1 μg/ml) and cyc-luc were added to chilled interphase extracts. Extracts were then pipetted and compounds added as above. Plates were warmed to room temperature and incubated for three hours, following which luminescence was measured as above. For the assay in FIG. 1D, chilled interphase extracts received recombinant axin and beta-catenin-luciferase reporter as described (8). Extracts were aliquoted to chilled plates and compounds distributed as described above. Plates were warmed to room temperature, incubated for three hours, and luminescence measured.

Assay [4] deals with β-catenin-luciferase turnover (substrate of the SCFβ-TRCP ubiquitin ligase). Briefly: β-catenin-luciferase turnover in interphase Xenopus extracts stimulated with recombinant axin. The assay is classed as biochemical. As to conditions: 200 μM compound. The method, then: as §2, §3, §4
Assay [5] relates to Cdh1-stimulated cyc-luc proteolysis (APC/C). Briefly: cyc-luc turnover in interphase Xenopus extracts stimulated with recombinant Cdh1. The assay is classed as biochemical. As to conditions: 200 μM compound; negative values reflect stimulation of proteolysis. The method, then:
as §2, §3, §4

Regarding `CC(=O)Nc1ccc(SSc2ccc(NC(C)=O)c3cccnc23)c2ncccc12` [Compound 23], in the assay with 26S proteasomes [1] (listed as C23), the “inhibition of deubiquitination of UbSic1 (in words)” value (shortened to “inhibition … (in words)”) is on record as “marginal inhibition; also recorded: inhibited marginally”. The “inhibitory effect on Sic1 (UbSic1) turnover” value (“inhibitory effect on Sic1” for short) in the assay with 26S proteasomes [2] is listed as “more modest effect”. Moreover, the “percent inhibition of cyc-luc turnover, (B) Mitotic extracts” value (from here on “percent inhibition … (B) Mitotic extracts”) in assay [3] stood at 100%. The “percent inhibition, (D) Degradation of a β-catenin reporter protein in interphase extracts stimulated with recombinant axin” value (“percent inhibition, (D) Degradation” below) in assay [4] amounted to 27%. The “percent inhibition of cyc-luc turnover, (C) Interphase extracts stimulated with Cdh1” value (shortened to “percent inhibition … with Cdh1”) in assay [5] came to 100%.
In the case of `O=S(=O)(O)c1ccc2cc3c(cc2c1)NN(c1ccc(/C=C/c2ccc(N4Nc5cc6ccc(S(=O)(=O)O)cc6cc5N4)cc2S(=O)(=O)O)c(S(=O)(=O)O)c1)N3` [Compound 59], the “inhibition … (in words)” value in the assay on 26S proteasomes [1] was “Complete inhibition”. The “inhibitory effect on Sic1” value with 26S proteasomes [2] was “strong inhibitory effect”. In addition, the “percent inhibition … (B) Mitotic extracts” value in assay [3] is recorded as 100%. For the same molecule, the “percent inhibition, (D) Degradation” value in assay [4] was 70%. The “percent inhibition … with Cdh1” value in assay [5] was 100%.
In the case of `O=C(Nc1ccc(/C=C/c2ccc(NC(=O)c3cc(S(=O)(=O)O)c4cccnc4c3O)cc2S(=O)(=O)O)c(S(=O)(=O)O)c1)c1cc(S(=O)(=O)O)c2cccnc2c1O` [Compound 92], in the assay with 26S proteasomes [1], the “inhibition … (in words)” value is listed as “completely blocked”. For the same molecule, in the assay with 26S proteasomes [2], the “inhibitory effect on Sic1” value is reported as “strong inhibitory effect”. The “percent inhibition … (B) Mitotic extracts” value in assay [3] is 22%. Also, the “percent inhibition, (D) Degradation” value in assay [4] turned out to be 21%. For the same molecule, in assay [5], the “percent inhibition … with Cdh1” value is reported as 65%.
